Consider ten compounds from patent US12492188B2, “1H-benzo[D]imidazole derivatives as TLR9 inhibitors for the treatment of fibrosis” (BRISTOL-MYERS SQUIBB COMPANY, priority 2020, dated 2025).

The structures appear in SMILES notation. Where two headings read alike, the source gives them in different places. A value given as a limit tells only on which side of the number the result lay.

Type in all cases: cell-based
The target in one test is T1, human TLR7 (Homo sapiens, UniProt Q9NYK1).
T1 construct: host or cells: HEK-Blue cells (HEK293-derived reporter line)
T1 sequence (Q9NYK1 27-1049): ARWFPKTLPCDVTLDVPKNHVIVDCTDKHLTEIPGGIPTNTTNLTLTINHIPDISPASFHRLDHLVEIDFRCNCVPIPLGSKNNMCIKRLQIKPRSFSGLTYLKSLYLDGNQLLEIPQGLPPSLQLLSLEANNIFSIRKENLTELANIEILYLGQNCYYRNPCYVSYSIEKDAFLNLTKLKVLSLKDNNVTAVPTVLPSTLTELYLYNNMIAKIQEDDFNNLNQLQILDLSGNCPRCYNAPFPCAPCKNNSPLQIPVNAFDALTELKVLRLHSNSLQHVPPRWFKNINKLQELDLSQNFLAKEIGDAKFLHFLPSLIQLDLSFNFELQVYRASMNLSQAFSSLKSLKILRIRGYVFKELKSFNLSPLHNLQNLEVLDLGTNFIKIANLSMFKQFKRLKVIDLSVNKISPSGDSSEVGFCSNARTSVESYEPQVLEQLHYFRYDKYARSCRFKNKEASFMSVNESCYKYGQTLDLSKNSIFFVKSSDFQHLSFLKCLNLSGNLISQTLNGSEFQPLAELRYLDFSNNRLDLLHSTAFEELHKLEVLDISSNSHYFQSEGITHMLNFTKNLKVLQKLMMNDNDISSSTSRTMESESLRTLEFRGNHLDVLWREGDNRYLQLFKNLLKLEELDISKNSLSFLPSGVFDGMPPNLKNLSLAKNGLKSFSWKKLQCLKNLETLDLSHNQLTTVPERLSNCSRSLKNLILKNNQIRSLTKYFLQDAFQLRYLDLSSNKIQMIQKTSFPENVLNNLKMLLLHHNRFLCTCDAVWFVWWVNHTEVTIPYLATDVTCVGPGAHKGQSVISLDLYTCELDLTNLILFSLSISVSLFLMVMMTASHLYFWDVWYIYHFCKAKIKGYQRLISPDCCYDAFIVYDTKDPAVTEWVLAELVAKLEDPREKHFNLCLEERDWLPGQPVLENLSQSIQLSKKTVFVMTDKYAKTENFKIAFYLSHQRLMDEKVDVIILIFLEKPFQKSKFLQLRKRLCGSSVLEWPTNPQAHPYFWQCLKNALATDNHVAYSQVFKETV
The test is described as follows: TLR7 inhibition reporter assay (HEK-Blue cells, secreted embryonic alkaline phosphatase reporter). The settings on record: HEK-Blue cells overexpressing human TLR7, stimulated with gardiquimod 7.5 μM; read-out: TLR 7 IC50. In a few lines: (§1)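 HEK-Blue cells overexpressing the respective receptor, with an NF-κB/AP-1-driven SEAP reporter, were pre-treated with compound (0.05 nM–50 μM) for 30 min at room temperature. Stimulation used gardiquimod 7.5 μM (TLR7), R848 15.9 μM (TLR8) or ODN2006 5 nM (TLR9); SEAP was read after 22 h at 37 °C as percent inhibition.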

For the next test, the target named is T2, human TLR9 (Homo sapiens, UniProt Q9NR96).
T2 construct: host or cells: HEK-Blue cells (HEK293-derived reporter line)
T2 sequence (Q9NR96 26-1032): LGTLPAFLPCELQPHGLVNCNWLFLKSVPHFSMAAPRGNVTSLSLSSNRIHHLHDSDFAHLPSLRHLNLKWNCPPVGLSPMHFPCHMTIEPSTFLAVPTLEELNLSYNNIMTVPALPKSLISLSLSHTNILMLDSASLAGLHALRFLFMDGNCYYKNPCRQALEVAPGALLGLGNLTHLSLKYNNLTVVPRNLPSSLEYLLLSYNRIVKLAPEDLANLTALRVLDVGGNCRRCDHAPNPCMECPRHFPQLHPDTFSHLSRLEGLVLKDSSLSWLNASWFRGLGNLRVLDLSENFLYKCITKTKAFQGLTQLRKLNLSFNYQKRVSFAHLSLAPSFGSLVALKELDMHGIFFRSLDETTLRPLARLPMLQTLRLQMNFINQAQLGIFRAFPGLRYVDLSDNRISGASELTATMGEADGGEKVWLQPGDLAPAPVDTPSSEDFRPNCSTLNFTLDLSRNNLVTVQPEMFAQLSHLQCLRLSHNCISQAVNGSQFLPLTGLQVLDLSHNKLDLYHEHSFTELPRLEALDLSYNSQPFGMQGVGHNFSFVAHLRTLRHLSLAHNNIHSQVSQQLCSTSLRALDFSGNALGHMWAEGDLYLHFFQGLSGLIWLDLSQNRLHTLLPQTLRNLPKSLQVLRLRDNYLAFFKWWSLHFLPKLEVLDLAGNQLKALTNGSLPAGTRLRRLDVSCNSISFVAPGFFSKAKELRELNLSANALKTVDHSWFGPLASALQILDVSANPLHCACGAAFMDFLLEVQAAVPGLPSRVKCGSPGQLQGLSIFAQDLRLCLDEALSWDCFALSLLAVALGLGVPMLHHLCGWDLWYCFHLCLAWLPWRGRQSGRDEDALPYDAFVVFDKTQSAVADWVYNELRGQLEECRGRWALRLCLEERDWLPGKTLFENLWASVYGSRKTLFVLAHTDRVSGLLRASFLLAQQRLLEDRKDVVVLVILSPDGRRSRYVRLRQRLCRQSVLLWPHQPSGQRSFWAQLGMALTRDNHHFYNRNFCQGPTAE
In words: TLR9 inhibition reporter assay (HEK-Blue cells, secreted embryonic alkaline phosphatase reporter). In a few lines:
as §1

The target in a further test is T3, human TLR8 (Homo sapiens, UniProt Q9NR97).
T3 construct: host or cells: HEK-Blue cells (HEK293-derived reporter line)
T3 sequence (Q9NR97 27-1041): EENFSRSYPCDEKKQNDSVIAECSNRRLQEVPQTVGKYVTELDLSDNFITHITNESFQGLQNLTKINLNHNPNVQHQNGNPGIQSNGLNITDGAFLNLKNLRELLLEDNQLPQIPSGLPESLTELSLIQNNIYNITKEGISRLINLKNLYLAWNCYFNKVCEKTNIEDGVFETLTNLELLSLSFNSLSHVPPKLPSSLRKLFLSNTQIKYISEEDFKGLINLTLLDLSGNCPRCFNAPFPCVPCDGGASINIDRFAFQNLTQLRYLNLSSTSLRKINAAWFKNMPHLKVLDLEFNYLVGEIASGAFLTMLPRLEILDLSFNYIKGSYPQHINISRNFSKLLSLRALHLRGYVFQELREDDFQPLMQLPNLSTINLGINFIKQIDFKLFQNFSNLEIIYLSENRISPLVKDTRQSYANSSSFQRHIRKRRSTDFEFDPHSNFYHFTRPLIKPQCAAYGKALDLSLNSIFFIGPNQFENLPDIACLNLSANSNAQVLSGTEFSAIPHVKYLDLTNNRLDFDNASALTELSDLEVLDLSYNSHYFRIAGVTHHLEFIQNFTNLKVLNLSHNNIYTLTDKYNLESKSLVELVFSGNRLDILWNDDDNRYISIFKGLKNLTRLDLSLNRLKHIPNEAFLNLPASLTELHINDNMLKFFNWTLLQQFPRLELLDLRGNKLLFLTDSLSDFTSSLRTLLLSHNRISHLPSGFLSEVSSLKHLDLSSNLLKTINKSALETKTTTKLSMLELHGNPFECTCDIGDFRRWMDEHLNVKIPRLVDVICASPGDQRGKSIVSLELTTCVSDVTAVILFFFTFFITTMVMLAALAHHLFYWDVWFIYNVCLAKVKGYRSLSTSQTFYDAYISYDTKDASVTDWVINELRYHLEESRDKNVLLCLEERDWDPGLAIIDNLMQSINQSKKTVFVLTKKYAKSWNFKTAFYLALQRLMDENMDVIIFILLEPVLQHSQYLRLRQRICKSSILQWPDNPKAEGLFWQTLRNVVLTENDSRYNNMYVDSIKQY
The test is described as follows: TLR8 inhibition reporter assay (HEK-Blue cells, secreted embryonic alkaline phosphatase reporter). The settings on record: HEK-Blue cells overexpressing human TLR8, stimulated with R848 15.9 μM; read-out: TLR 8 IC50. In a few lines:
as §1

Setting [1] is: HEK-Blue cells overexpressing human TLR9, stimulated with ODN2006 5 nM, read-out: TLR 9 IC50.
Setting [2] is: HEK-Blue human TLR9 reporter cells.

Consider `CC(C)CN1CCCC(N2CCC(c3cc(F)c4nc(-c5ccc(S(C)(=O)=O)cc5)n(C)c4c3)CC2)CC1` (stereo not shown) [Example 297, 4-fluoro-6-(1-(1-isobutylazepan-4-yl)piperidin-4-yl)-1-methyl-2-(4-(methylsulfonyl)phenyl)-1H-benzo[d]imidazole], for which the IC50 on human TLR7 was 12500 nM; on human TLR9 (setting [1]) it was 23 nM; against human TLR9 (setting [2]) it was 23 nM; on human TLR8, over 50000 nM.
As to `Cn1c(-c2ccc(S(C)(=O)=O)cc2)nc2c(F)cc(C3CCN(C4CCCN(C5CCOCC5)CC4)CC3)cc21` (stereo not shown) [Example 300, 4-fluoro-1-methyl-2-(4-(methylsulfonyl)phenyl)-6-(1-(1-(tetrahydro-2H-pyran-4-yl)azepan-4-yl)piperidin-4-yl)-1H-benzo[d]imidazole], the IC50 is 2900 nM at human TLR7, 20 nM at human TLR9 (setting [1]), 20 nM at human TLR9 (setting [2]) and over 50000 nM at human TLR8.
Turning to `Cn1c(-c2ccc(S(C)(=O)=O)cc2)nc2c(F)cc(C3CCN(C4CCCN(C5CCOCC5)CC4)CC3)cc21` (stereo not shown) [Example 301, 4-fluoro-1-methyl-2-(4-(methylsulfonyl)phenyl)-6-(1-(1-(tetrahydro-2H-pyran-4-yl)azepan-4-yl)piperidin-4-yl)-1H-benzo[d]imidazole], the IC50 at human TLR7 was 3100 nM; at human TLR9 (setting [1]) it was 48 nM; against human TLR9 (setting [2]), 48 nM; on human TLR8, over 50000 nM.
For the compound `Cc1cc(C2CCN(C3CCCN(C4COC4)CC3)CC2)cc2c1nc(-c1ccc(S(C)(=O)=O)cc1)n2C` (stereo not shown) [Example 304, 1,4-dimethyl-2-(4-(methylsulfonyl)phenyl)-6-(1-(1-(oxetan-3-yl)azepan-4-yl)piperidin-4-yl)-1H-benzo[d]imidazole], the half-maximal inhibitory concentration (IC50) is 12300 nM on human TLR7, 180 nM at human TLR9 (setting [1]), 180 nM on human TLR9 (setting [2]) and over 50000 nM on human TLR8.
As to `Cc1cc(C2CCN(C3CCCN(C4COC4)CC3)CC2)cc2c1nc(-c1ccc(S(C)(=O)=O)cc1)n2C` (stereo not shown) [Example 305, 1,4-dimethyl-2-(4-(methylsulfonyl)phenyl)-6-(1-(1-(oxetan-3-yl)azepan-4-yl)piperidin-4-yl)-1H-benzo[d]imidazole], the IC50 was 8600 nM on human TLR7, 90 nM on human TLR9 (setting [1]), 90 nM against human TLR9 (setting [2]) and over 50000 nM on human TLR8.
Turning to `CC(C)CN1CCCC(N2CCC(c3ccc4nc(-c5ccc(S(C)(=O)=O)cc5)n(C)c4c3F)CC2)CC1` (stereo not shown) [Example 310, 7-fluoro-6-(1-(1-isobutylazepan-4-yl)piperidin-4-yl)-1-methyl-2-(4-(methylsulfonyl)phenyl)-1H-benzo[d]imidazole], the IC50 at human TLR7 was over 50000 nM; at human TLR9 (setting [1]) it was 46 nM; against human TLR9 (setting [2]), 47 nM; at human TLR8, over 50000 nM.
For `CC(C)CN1CCCC(N2CCC(c3ccc4nc(-c5ccc(S(C)(=O)=O)cc5)n(C)c4c3F)CC2)CC1` (stereo not shown) [Example 311, 7-fluoro-6-(1-(1-isobutylazepan-4-yl)piperidin-4-yl)-1-methyl-2-(4-(methylsulfonyl)phenyl)-1H-benzo[d]imidazole], the IC50 at human TLR7 was over 50000 nM; at human TLR9 (setting [1]), 72 nM; against human TLR9 (setting [2]) it was 72 nM; at human TLR8 it was over 50000 nM.
`Cn1c(-c2ccc(S(C)(=O)=O)cc2)nc2ccc(C3CCN(C4CCCN(C5CCC5)CC4)CC3)c(F)c21` (stereo not shown) [Example 312, 6-(1-(1-cyclobutylazepan-4-yl)piperidin-4-yl)-7-fluoro-1-methyl-2-(4-(methylsulfonyl)phenyl)-1H-benzo[d]imidazole]: the IC50 is over 50000 nM on human TLR7, 64 nM at human TLR9 (setting [1]), 64 nM against human TLR9 (setting [2]) and over 50000 nM at human TLR8.
For the compound `Cn1c(-c2ccc(S(C)(=O)=O)cc2)nc2ccc(C3CCN(C4CCCN(C5CCC5)CC4)CC3)c(F)c21` (stereo not shown) [Example 313, 6-(1-(1-cyclobutylazepan-4-yl)piperidin-4-yl)-7-fluoro-1-methyl-2-(4-(methylsulfonyl)phenyl)-1H-benzo[d]imidazole], the IC50 on human TLR7 was over 50000 nM; on human TLR9 (setting [1]), 69 nM; against human TLR9 (setting [2]) it was 69 nM; at human TLR8, over 50000 nM.
Consider `Cn1c(-c2ccc(S(C)(=O)=O)cc2)nc2ccc(C3CCN(C4CCCN(C5COC5)CC4)CC3)c(F)c21` (stereo not shown) [Example 314, 7-fluoro-1-methyl-2-(4-(methylsulfonyl)phenyl)-6-(1-(1-(oxetan-3-yl)azepan-4-yl)piperidin-4-yl)-1H-benzo[d]imidazole], for which the IC50 was 6100 nM on human TLR7, 192 nM on human TLR9 (setting [1]), 190 nM at human TLR9 (setting [2]) and over 50000 nM on human TLR8.
